Laboratory results: patent US12215085B2 (priority 2019, dated 2025)
Where a name gives a salt, the structure may show the parent alone. Marks after values point to notes of the source that are not given here.

Experiments:
[1] = tested on: rats with common carotid artery occlusion-induced vascular dementia; test: Water maze test, common carotid artery occlusion-induced vascular dementia rats; type: in vivo, rat; settings: for orientation angle for reaching the platform / speed for reaching the platform / swimming path length for reaching the platform / time for reaching the platform: x ± s
From the text: (§1) A rat blood vessel dementia model was made according to the references [ZHAO Xian-lin, FANG Xiu-bin, LI Dong-pei. Establishment of Vascular Dementia Model in Rats, J Chin Med Univ, 2002, 31 (3): 166-168; WANG Yong-yan, Zhang Bo-li, Editor-in-chief. Modern Chinese Medicine Clinic and Research on Vascular Dementia, People's Medical Publishing House, October 2003, First Version 214]: Chloral hydrate 0.4 g/kg was intraperitoneally injected for anesthetizing rats, and bilateral common carotid arteries were isolated and ligated. The animals were fed for 16 weeks, divided into groups on the last 7 days, and administered. The normal control group and the model group were administrated through the intragastric route with distilled water by 0.5 ml/100 g, the positive control group was administrated through the intragastric route with donepezil hydrochloride by 1.75 mg/kg (equivalent to 3.85 times the clinical daily dosage of 5 mg/70 kg), the low, medium and high-dose groups of Crystal Form A of octahydroaminoacridine succinate were administrated through the intragastric route with Crystal Form A of octahydroaminoacridine succinate by 0.7, 1.4 and 2.8 mg/kg (equivalent to 0.96, 1.92 and 3.85 times the clinical daily dosage of 8 mg/70 kg). The water maze test and the step-down test were carried out after continuous administration for 7 days, and the administration was continued during the test period. The water maze test was continuously performed for 7 days, in the first 6 days, in four different water entry points of quadrants 1, 2, 3 and 4, the time, the swimming path length, the orientation angle and the average speed of the rat reaching the platform were measured, meanwhile, the strategy for reaching the platform adopted by rats was observed, on the 7th day, the platform was removed, the number of rats crossing the platform in 2 minutes, the residence time in the platform area, the residence time in the platform quadrants, the percentage of the swimming path length in the platform area quadrants to the total swimming path length, the average speed and the orientation angle were measured. After the water maze test was finished, the step-down test was performed, and the number of electric shocks (or called as the error number) received by each rat within 5 minutes was recorded as the learning performance. The test was performed again after 24 hours, namely, the memory retention test, and the latent period for stepping-down the platform for the first time and the error number in five minutes were recorded. After the step-down test was finished, the brain was taken quickly for pathological examination, and the pathological changes of the hippocampus and the cortex were observed.

[2] = tested on: rats with beta-amyloid induced senile dementia; test: Water maze test, beta-amyloid induced senile dementia rats; type: in vivo, rat; settings: for adopted strategy for reaching the platform (the peripheral type and the random type %) / orientation angle for reaching the platform / speed for reaching the platform / swimming path length for reaching the platform / time for reaching the platform: 1.75 mg/kg intragastric; for orientation angle for reaching the platform / speed for reaching the platform / swimming path length for reaching the platform / time for reaching the platform: x ± s
[3] = tested on: rats with common carotid artery occlusion-induced vascular dementia; test: Step-down test, common carotid artery occlusion-induced vascular dementia rats; type: in vivo, rat
From the text: as §1

[4] = tested on: rats with beta-amyloid induced senile dementia; test: Step-down test, beta-amyloid induced senile dementia rats; type: in vivo, rat; settings: donepezil hydrochloride 1.75 mg/kg, P<0.05
cholinesterase D = cholinesterase D (Homo sapiens, UniProt P06276); type: biochemical; settings: in vitro tests; multiple of rivastigmine
Sequence of cholinesterase D (P06276 29-602): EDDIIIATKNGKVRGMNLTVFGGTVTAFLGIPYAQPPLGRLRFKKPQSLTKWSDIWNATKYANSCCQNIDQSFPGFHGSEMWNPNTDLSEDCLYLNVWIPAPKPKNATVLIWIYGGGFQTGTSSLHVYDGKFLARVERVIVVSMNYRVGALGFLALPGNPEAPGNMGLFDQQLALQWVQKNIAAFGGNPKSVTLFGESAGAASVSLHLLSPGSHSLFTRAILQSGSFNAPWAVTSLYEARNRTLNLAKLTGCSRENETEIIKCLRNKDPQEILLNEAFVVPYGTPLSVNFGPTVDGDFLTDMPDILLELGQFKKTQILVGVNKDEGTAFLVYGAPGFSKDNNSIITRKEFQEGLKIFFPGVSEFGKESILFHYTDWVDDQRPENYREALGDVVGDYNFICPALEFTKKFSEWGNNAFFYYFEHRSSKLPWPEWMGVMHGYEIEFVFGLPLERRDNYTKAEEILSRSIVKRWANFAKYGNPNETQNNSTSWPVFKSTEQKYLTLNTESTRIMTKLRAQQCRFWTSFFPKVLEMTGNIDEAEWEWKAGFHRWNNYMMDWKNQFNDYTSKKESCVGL

[5] = tested on: cholinesterase B (Homo sapiens); test: In vitro inhibition of cholinesterase B; type: biochemical; settings: in vitro tests; multiple of rivastigmine
Sequence of cholinesterase B (Homo sapiens) (P22303 32-614): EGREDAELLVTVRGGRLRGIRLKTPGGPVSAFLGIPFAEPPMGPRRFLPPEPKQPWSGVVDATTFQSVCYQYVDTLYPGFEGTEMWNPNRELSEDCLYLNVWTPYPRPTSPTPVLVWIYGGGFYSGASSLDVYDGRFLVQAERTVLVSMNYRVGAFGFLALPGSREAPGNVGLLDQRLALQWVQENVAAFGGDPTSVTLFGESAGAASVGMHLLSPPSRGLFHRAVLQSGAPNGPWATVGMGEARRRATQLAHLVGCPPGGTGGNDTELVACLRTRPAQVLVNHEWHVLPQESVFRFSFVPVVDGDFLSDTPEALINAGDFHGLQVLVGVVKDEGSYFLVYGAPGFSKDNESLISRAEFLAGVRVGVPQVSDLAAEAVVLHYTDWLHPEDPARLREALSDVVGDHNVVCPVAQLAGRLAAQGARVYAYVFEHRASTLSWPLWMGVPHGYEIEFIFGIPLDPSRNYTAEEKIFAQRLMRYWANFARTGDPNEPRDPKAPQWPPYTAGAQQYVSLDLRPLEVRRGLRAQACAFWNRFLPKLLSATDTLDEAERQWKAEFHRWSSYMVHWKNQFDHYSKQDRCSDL

[6] = donepezil hydrochloride 1.75 mg/kg, Day 1 to Day 6
[7] = donepezil hydrochloride 1.75 mg/kg, Day 7
[8] = donepezil hydrochloride 1.75 mg/kg, Day 7, P<0.05
[9] = donepezil hydrochloride 1.75 mg/kg, P<0.05 or P<0.01
[10] = donepezil hydrochloride 1.75 mg/kg, Day 2, P<0.05
[11] = step-down method, 1.75 mg/kg intragastric, x ± s

COc1cc2c(cc1OC)C(=O)C(CC1CCN(Cc3ccccc3)CC1)C2 (centres unmarked) [Positive control group, donepezil hydrochloride]
adopted strategy for reaching the platform (the peripheral type and the random type %) ([1]; Day 1, 1.75 mg/kg intragastric): 65.00* % | orientation angle for reaching the platform ([1]; Day 1, 1.75 mg/kg intragastric): 58.85 ± 15.35 ° | speed for reaching the platform ([1]; Day 1, 1.75 mg/kg intragastric): 21.15 ± 5.56 cm/s | swimming path length for reaching the platform ([1]; Day 1, 1.75 mg/kg intragastric): 1105.00 ± 578.29 cm | time for reaching the platform ([1]; Day 1, 1.75 mg/kg intragastric): 58.42 ± 23.42 s | adopted strategy for reaching the platform (the peripheral type and the random type %) ([1]; Day 2, 1.75 mg/kg intragastric): 62.50% | orientation angle for reaching the platform ([1]; Day 2, 1.75 mg/kg intragastric): 61.54 ± 17.41 ° | speed for reaching the platform ([1]; Day 2, 1.75 mg/kg intragastric): 22.68 ± 5.82 cm/s | swimming path length for reaching the platform ([1]; Day 2, 1.75 mg/kg intragastric): 579.08 ± 316.12 cm | time for reaching the platform ([1]; Day 2, 1.75 mg/kg intragastric): 33.96 ± 17.06 s | adopted strategy for reaching the platform (the peripheral type and the random type %) ([1]; Day 3, 1.75 mg/kg intragastric): 62.50* % | orientation angle for reaching the platform ([1]; Day 3, 1.75 mg/kg intragastric): 48.94 ± 13.42 ° | speed for reaching the platform ([1]; Day 3, 1.75 mg/kg intragastric): 21.19 ± 3.15 cm/s | swimming path length for reaching the platform ([1]; Day 3, 1.75 mg/kg intragastric): 606.25 ± 279.18 cm | time for reaching the platform ([1]; Day 3, 1.75 mg/kg intragastric): 30.17 ± 14.50 s | adopted strategy for reaching the platform (the peripheral type and the random type %) ([1]; Day 4, 1.75 mg/kg intragastric): 67.50% | orientation angle for reaching the platform ([1]; Day 4, 1.75 mg/kg intragastric): 58.94 ± 22.56 ° | speed for reaching the platform ([1]; Day 4, 1.75 mg/kg intragastric): 25.79 ± 9.79 cm/s | swimming path length for reaching the platform ([1]; Day 4, 1.75 mg/kg intragastric): 615.78 ± 385.17 cm | time for reaching the platform ([1]; Day 4, 1.75 mg/kg intragastric): 23.92 ± 12.45 s | adopted strategy for reaching the platform (the peripheral type and the random type %) ([1]; Day 5, 1.75 mg/kg intragastric): 50.00% | orientation angle for reaching the platform ([1]; Day 5, 1.75 mg/kg intragastric): 49.64 ± 17.65 ° | speed for reaching the platform ([1]; Day 5, 1.75 mg/kg intragastric): 24.88 ± 8.76 cm/s | swimming path length for reaching the platform ([1]; Day 5, 1.75 mg/kg intragastric): 586.80 ± 405.09 cm | time for reaching the platform ([1]; Day 5, 1.75 mg/kg intragastric): 21.94 ± 11.16 s | adopted strategy for reaching the platform (the peripheral type and the random type %) ([1]; Day 6, 1.75 mg/kg intragastric): 47.50** % | orientation angle for reaching the platform ([1]; Day 6, 1.75 mg/kg intragastric): 53.54 ± 19.68 ° | speed for reaching the platform ([1]; Day 6, 1.75 mg/kg intragastric): 21.02 ± 6.67 cm/s | swimming path length for reaching the platform ([1]; Day 6, 1.75 mg/kg intragastric): 348.06 ± 202.65 cm | time for reaching the platform ([1]; Day 6, 1.75 mg/kg intragastric): 17.87 ± 12.66 s | Average speed ([1]; Day 7, 1.75 mg/kg intragastric): 24.60 ± 10.18 cm/s | Number of crossing the platform ([1]; Day 7, 1.75 mg/kg intragastric): 9.40 ± 5.16 | Orientation angle ([1]; Day 7, 1.75 mg/kg intragastric): 9.40 ± 5.17 ° | Swimming path length in the platform area/total swimming path length × 100% ([1]; Day 7, 1.75 mg/kg intragastric): 33.02 ± 9.98% | Time in the platform area ([1]; Day 7, 1.75 mg/kg intragastric): 3.06 ± 2.24 s | Time in the platform quadrants ([1]; Day 7, 1.75 mg/kg intragastric): 42.21 ± 12.71 s | orientation angle and swimming speed vs model group [1, 6]: not obviously changed | swimming path length for reaching the platform vs model group ([1]; donepezil hydrochloride 1.75 mg/kg, Day 2, Day 3 and Day 6, P<0.05): obviously shortened | latent period for reaching the platform vs model group ([1]; donepezil hydrochloride 1.75 mg/kg, Day 5 and Day 6, P<0.05 or P<0.01): obviously shortened | average speed and orientation angle vs model group [1, 7]: not obviously changed | residence time in the platform quadrants within 2 minutes vs model group [1, 8]: obviously increased | number of crossing the platform, residence time in the platform area, and percentage of the swimming path length in the platform area quadrants to the total swimming path length vs model group ([1]; donepezil hydrochloride 1.75 mg/kg, Day 7, no statistical significance): increased trend | conversion from the peripheral type or the random type to the tendency type or the linear type in the strategy for looking for the platform [1, 9]: obviously increased | adopted strategy for reaching the platform (the peripheral type and the random type %) ([2]; Day 1): 97.50% | orientation angle for reaching the platform ([2]; Day 1): 75.41 ± 22.31 ° | speed for reaching the platform ([2]; Day 1): 16.03 ± 4.22 cm/s | swimming path length for reaching the platform ([2]; Day 1): 1029.43 ± 453.12 cm | time for reaching the platform ([2]; Day 1): 72.43 ± 30.97 s | adopted strategy for reaching the platform (the peripheral type and the random type %) ([2]; Day 2): 75.00% | orientation angle for reaching the platform ([2]; Day 2): 50.14 ± 23.02 ° | speed for reaching the platform ([2]; Day 2): 20.78 ± 5.83 cm/s | swimming path length for reaching the platform ([2]; Day 2): 762.34 ± 562.06 cm | time for reaching the platform ([2]; Day 2): 38.98 ± 33.812 s | adopted strategy for reaching the platform (the peripheral type and the random type %) ([2]; Day 3): 77.50% | orientation angle for reaching the platform ([2]; Day 3): 52.85 ± 27.04 ° | speed for reaching the platform ([2]; Day 3): 19.15 ± 4.64 cm/s | swimming path length for reaching the platform ([2]; Day 3): 572.83 ± 576.82 cm | time for reaching the platform ([2]; Day 3): 34.41 ± 37.35 s | adopted strategy for reaching the platform (the peripheral type and the random type %) ([2]; Day 4): 62.50** % | orientation angle for reaching the platform ([2]; Day 4): 46.37 ± 17.86 ° | speed for reaching the platform ([2]; Day 4): 22.07 ± 8.05 cm/s | swimming path length for reaching the platform ([2]; Day 4): 312.04 ± 316.86 cm | time for reaching the platform ([2]; Day 4): 29.32 ± 39.89 s | adopted strategy for reaching the platform (the peripheral type and the random type %) ([2]; Day 5): 67.50** % | orientation angle for reaching the platform ([2]; Day 5): 50.54 ± 24.98 ° | speed for reaching the platform ([2]; Day 5): 19.67 ± 3.94 cm/s | swimming path length for reaching the platform ([2]; Day 5): 495.72 ± 380.99 cm | time for reaching the platform ([2]; Day 5): 29.16 ± 24.95 s | adopted strategy for reaching the platform (the peripheral type and the random type %) ([2]; Day 6): 62.50* % | orientation angle for reaching the platform ([2]; Day 6): 44.21 ± 34.00 ° | speed for reaching the platform ([2]; Day 6): 18.28 ± 5.12 cm/s | swimming path length for reaching the platform ([2]; Day 6): 413.33 ± 483.35 cm | time for reaching the platform ([2]; Day 6): 28.99 ± 35.61 s | swimming speed vs model group [2, 6]: not obviously changed | latent period for reaching the platform vs model group ([2]; donepezil hydrochloride 1.75 mg/kg, Day 1 to Day 6, no statistical significance): shortened trend | orientation angle vs model group [2, 10]: obviously decreased | swimming path length for reaching the platform vs model group ([2]; donepezil hydrochloride 1.75 mg/kg, Day 4, P<0.05): obviously shortened | average speed and orientation angle vs model group [2, 7]: not obviously changed | number of crossing the platform vs model group [2, 8]: obviously increased | percentage of the swimming path length in the platform area quadrants to the total swimming path length vs model group [2, 8]: obviously increased | residence time in the platform area vs model group [2, 8]: obviously increased | residence time in the platform quadrants within 2 minutes vs model group [2, 8]: obviously increased | conversion from the peripheral type and the random type to the tendency type and the linear type in the strategy for looking for the platform [2, 9]: obviously increased | step-down error number vs model group ([3]; donepezil hydrochloride 1.75 mg/kg, Day 1 and Day 2, P<0.05): obviously reduced | error latency vs model group [3, 10]: obviously prolonged | Day 1, Error number [3, 11]: 5.40 ± 3.06 | Day 2, Error latency [3, 11]: 244.10 ± 77.83 s | Day 2, Error number [3, 11]: 1.10 ± 1.28 | step-down error number vs model group ([4]; Day 1 and Day 2): obviously reduced | error latency vs model group ([4]; Day 2): obviously prolonged

Nc1c2c(nc3c1CCCC3)CCCC2.O=C(O)CCC(=O)O [octahydroaminoacridine succinate, 9-amino-1,2,3,4,5,6,7,8-octahydroacridine succinate]
inhibiting ability to cholinesterase D relative to rivastigmine (cholinesterase D): 2000 times | inhibiting ability to cholinesterase B relative to rivastigmine [5]: 500 times
